These results are taken from US20220281915A1, “COMPOSITIONS COMPRISING BOVINE ADRENAL MEDULLA 8-22 (BAM8-22) PEPTIDE ANALOGS AND METHODS OF USE” (OKYO Pharma Limited, priority 2019, published 2022).

Like-named read-outs stand apart in the source and are kept apart here. Non-standard residues stand in square brackets, D forms with d. Residues, ends and D or L forms follow the SMILES beside them. No end group written: not given here. Nle = CCCC[C@H](N)C(=O)O

One series has as its target human MRGPRX1 receptor (Homo sapiens, UniProt Q96LB2). Description: DiscoverX calcium mobilization cell culture assay, agonist mode (FLIPR Tetra). Type of series: cell-based. Conditions: Table 2 initial screening data, agonist format, peptides. The procedure:
DiscoverX® Calcium cell line overexpressing naturally Gq coupled, wildtype human MRGPRX1 receptor was used to detect calcium mobilization in response to agonist stimulation of the receptor. Cells were plated in a 384-well plate and incubated overnight at 37° C. and 5% CO2 to allow the cells to attach and grow. Culture media was removed and replaced with dye loading buffer from the Calcium No WashPLUS detection kit according to the recommended protocol. Cells were incubated with peptides to induce response and calcium mobilization was detected using a FLIPR® Tetra (Molecular Devices, Inc.).
Compound activity was analyzed using Chemical and Biological Information System (CBIS) data analysis suite (ChemInnovation, CA). For agonist mode assays, percentage activity is calculated using the following formula: % Activity=100%×(mean RFU of test sample−mean RFU of vehicle control)/(mean MAX RFU control ligand−mean RFU of vehicle control). […] RFU means relative fluorescence units.

Series [1] deals with mechanical allodynia. Conditions: mouse, chronic constriction injury, intrathecal; cited from earlier work.
For series [2], the system named is mechanical allodynia. Conditions: rat, spinal nerve ligation, intrathecal; cited from earlier work.

Sequence of human MRGPRX1 receptor (Q96LB2 whole entry): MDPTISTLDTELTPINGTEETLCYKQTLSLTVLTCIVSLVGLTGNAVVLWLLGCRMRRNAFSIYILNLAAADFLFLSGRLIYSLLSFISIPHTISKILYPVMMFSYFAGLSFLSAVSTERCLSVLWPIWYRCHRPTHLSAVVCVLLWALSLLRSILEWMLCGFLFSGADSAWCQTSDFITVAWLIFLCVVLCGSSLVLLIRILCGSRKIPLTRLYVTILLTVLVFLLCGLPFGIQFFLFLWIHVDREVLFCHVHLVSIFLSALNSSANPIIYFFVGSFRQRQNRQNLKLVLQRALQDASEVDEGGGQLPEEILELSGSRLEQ

Turning to `CCCC[C@H](NC(=O)[C@H](Cc1c[nH]c2ccccc12)NC(=O)[C@H](Cc1c[nH]c2ccccc12)NC(=O)[C@H](CCC(=O)O)NC(=O)[C@@H]1CCCN1C(=O)[C@H](CCCNC(=N)N)NC(=O)CNC(=O)[C@@H](N)C(C)C)C(=O)N[C@@H](CC(=O)O)C(=O)N[C@@H](Cc1ccc(O)cc1)C(=O)N[C@@H](CCC(N)=O)C(=O)N[C@@H](CCCCN)C(=O)N[C@@H](CCCNC(=N)N)C(=O)N[C@@H](Cc1ccc(O)cc1)C(=O)NCC(=O)O` [OK-205, VGRPEWW-Nle-DYQKRYG (SEQ ID NO: 22)] (H-VGRPEWW[Nle]DYQKRYG-OH; N-terminus and C-terminus assumed), the EC50 – broadly, the concentration giving half of the maximal effect – at human MRGPRX1 receptor stood at 11.1 nM.
Turning to `CSCC[C@H](NC(=O)[C@H](Cc1c[nH]c2ccccc12)NC(=O)[C@H](Cc1c[nH]c2ccccc12)NC(=O)[C@H](CCC(=O)O)NC(=O)[C@@H]1CCCN1C(=O)[C@H](CCCNC(=N)N)NC(=O)CNC(=O)[C@H](N)C(C)C)C(=O)N[C@@H](CC(=O)O)C(=O)N[C@@H](Cc1ccc(O)cc1)C(=O)N[C@@H](CCC(N)=O)C(=O)N[C@@H](CCCCN)C(=O)N[C@@H](CCCNC(=N)N)C(=O)N[C@@H](Cc1ccc(O)cc1)C(=O)NCC(=O)O` [OK-206, dV-GRPEWWMDYQKRY-dG (SEQ ID NO: 23)] (H-[dV]GRPEWWMDYQKRYG-OH; N-terminus and C-terminus assumed), the EC50 on human MRGPRX1 receptor was determined as 1.02 nM.
“GRPEWWMDYQKRY [OK-203, GRPEWWMDYQKRY (SEQ ID NO: 3)]”: at human MRGPRX1 receptor, the EC50 came to 0.67 nM.
“VGRPEWWMDSQKRYG [OK-202, VGRPEWWMDSQKRYG (SEQ ID NO: 54)]”: the EC50 on human MRGPRX1 receptor amounted to 1580 nM.
As to “VGRPEWWMDYQKRYG [BAM-8-22, VGRPEWWMDYQKRYG (SEQ ID NO: 21)]”, the concentration giving a half-maximal response (EC50) at human MRGPRX1 receptor worked out at 1.33 nM. Moreover, the baseline nociception result in the series with mechanical allodynia [1] and in the series on mechanical allodynia [2] was “did not affect baseline nociception” each time. The mechanical allodynia result in the series with mechanical allodynia [1] and in the series on mechanical allodynia [2] was “attenuates mechanical allodynia” throughout.
